Data on ten molecules can be found in patent US20250235543A1, “MODIFIED PROTEINS AND PROTEIN DEGRADERS” (Cullgen (Shanghai), Inc., priority 2021, published 2025).

Like-named read-outs stand apart in the source and are kept apart here.

The Kd is a measure of binding affinity in units of concentration.

Assay [1] relates to cyclin D1. Description: Cyclin D1 percentage degradation in Calu-1 cells (immunoblotting). To be noted: 16 hours. It is filed as cell-based. A digest of the protocol: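 Cyclin D1 degradation was assessed by western blot. Clarified lysates, obtained by RIPA lysis with inhibitors and centrifugation at 13,000 rpm, were normalized by BCA protein assay and separated by SDS-PAGE. Bands were detected with Western ECL Substrate on a Bio-Rad ChemiDoc MP Imaging system and quantified in Image Lab software to derive percentage degradation.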

For assay [2], the target named is T1, DDB1 (Homo sapiens, UniProt Q16531, D705G/DEL396-460/DEL463-701/I704S/T703N).
T1 construct: His6 (N, cleaved yes); TEV protease cleavage site (N, cleaved yes); made in house; host or cells: SF9 insect cells, Bac-to-Bac baculovirus, pFastBacHTB vector
Put plainly: SPR binding assay to immobilized DDB1ΔBPB. To be noted: binding affinities to DDB1. How it is done: The binding affinities of heterobifunctional compounds to DDB1 were determined by SPR assay (FIG. 1A-1B). Purified DDB1ΔBPB proteins were immobilized on a CM5 sensor chip, and a dose range of compound solutions were injected in multi-cycle kinetic format. Data were fit to a steady state model to provide equivalent dissociation constants (Kd).
Human DDB1ΔBPB (UniProt: Q16531. BPB domain, aa 396 to 705, is replaced with a GNGNSG linker) coding sequences were cloned into pFastBacHTB vector and were expressed in SF9 cells using Bac-to-Bac baculovirus expression system (Thermo Fisher Scientific). The expression constructs include an N-terminal His6-tag to facilitate the purification, and a TEV protease cleavage site in between. DDB1ΔBPB proteins were obtained from supernatant of cell lysates and purified through sequential application of Ni affinity column (Ni-NTA column, Bio-Rad) and size-exclusion column (Superdex 200 16/600GL column, GE Healthcare) chromatography. Protein tags were cleaved off by TEV protease, and the resulting untagged proteins were further purified by Ni affinity column. Purified proteins were verified by immunoblotting, analytic SEC, and LC-MS.
SPR studies were performed on a Biacore X100 plus instrument (GE Healthcare). Immobilization of purified DDB1ΔBPB was carried out at 25° C. using a CM5 sensor chip. The surface was pre-equilibrated in HBS-EP running buffer (10 mM HEPES, pH7.4, 150 mM NaCl, 3 mM EDTA, 0.05% P20), before it was activated with EDC/NHS. DDB1ΔBPB proteins were immobilized by amine coupling to a density of 10,000-12,000 resonance units (RUs) on flow cell FC2, whereas flow cell FC1 was used as reference. Both protein immobilized and reference surfaces were deactivated with 1M ethanolamine. All interaction experiments were performed at 25° C. Test compounds were prepared and serially diluted in HBS-EP running buffer containing final 5% DMSO (6-point two-fold serial dilution, 100 μM-3.125 μM final concentration of compounds). Compound solutions were injected individually in multi-cycle kinetic format without regeneration (flow rate 30 μl/min, association time 120 s, dissociation time 120 s). Sensorgrams from reference surfaces and blank injections were subtracted from the raw data (double-referencing) and the data was solvent-corrected prior to analysis. All data were fit to steady state affinity model using Biacore Evaluation Software to provide equivalent dissociation constants (Kd).
On the technique in general: Surface plasmon resonance follows binding to a sensor surface in real time, without labels.

In assay [3] the target is T2, CDK4 (Homo sapiens, UniProt P11802).
T2 construct: endogenous in cells; host or cells: Calu-1
Put plainly: CDK4 percentage degradation in Calu-1 cells (immunoblotting). It is filed as cell-based. The settings on record: for inhibition at 10 µM: read-out: CDK4 Degradation (10 μM); for inhibition at 0.2 µM: 200 nM, read-out: CDK4 Degradation (200 nM). Put shortly:
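CDK4 degradation was measured by immunoblotting. Cells were washed in cold PBS and lysed in RIPA buffer with inhibitors for 30 min at 4° C., then spun at 13,000 rpm to clear. After BCA protein determination, lysates were heated at 99° C. for 5 min in Laemmli buffer, resolved on SDS-PAGE, imaged on a ChemiDoc MP with ECL substrate, and band intensities quantified.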
(A western blot detects proteins with antibodies after separation by electrophoresis.)

T1 sequence (Q16531 other isoform, or with tags, fused parts or gaps DEL396-460/DEL463-701/T703N/I704S/D705G): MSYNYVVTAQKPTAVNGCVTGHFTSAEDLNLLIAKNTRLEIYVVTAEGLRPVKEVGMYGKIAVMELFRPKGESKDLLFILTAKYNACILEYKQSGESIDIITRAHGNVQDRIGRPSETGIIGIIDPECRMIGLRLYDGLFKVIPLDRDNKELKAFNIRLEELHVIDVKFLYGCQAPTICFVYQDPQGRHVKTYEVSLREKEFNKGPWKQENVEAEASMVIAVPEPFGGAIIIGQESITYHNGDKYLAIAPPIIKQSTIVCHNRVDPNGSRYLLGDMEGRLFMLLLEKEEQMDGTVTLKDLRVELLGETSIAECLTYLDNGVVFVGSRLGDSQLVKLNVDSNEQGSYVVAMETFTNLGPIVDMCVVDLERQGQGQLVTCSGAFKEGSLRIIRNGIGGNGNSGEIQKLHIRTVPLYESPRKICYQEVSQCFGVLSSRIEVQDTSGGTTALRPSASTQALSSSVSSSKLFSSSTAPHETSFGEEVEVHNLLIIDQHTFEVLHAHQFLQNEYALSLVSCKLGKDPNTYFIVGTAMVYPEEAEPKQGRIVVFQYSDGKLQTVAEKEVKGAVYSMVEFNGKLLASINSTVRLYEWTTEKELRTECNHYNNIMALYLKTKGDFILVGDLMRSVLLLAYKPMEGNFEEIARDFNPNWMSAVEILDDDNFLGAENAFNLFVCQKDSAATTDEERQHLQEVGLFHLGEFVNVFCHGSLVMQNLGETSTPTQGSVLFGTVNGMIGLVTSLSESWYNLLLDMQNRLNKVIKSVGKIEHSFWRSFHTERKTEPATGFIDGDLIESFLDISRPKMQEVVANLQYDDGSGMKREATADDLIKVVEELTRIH
T2 sequence (P11802 2-303 limits assumed): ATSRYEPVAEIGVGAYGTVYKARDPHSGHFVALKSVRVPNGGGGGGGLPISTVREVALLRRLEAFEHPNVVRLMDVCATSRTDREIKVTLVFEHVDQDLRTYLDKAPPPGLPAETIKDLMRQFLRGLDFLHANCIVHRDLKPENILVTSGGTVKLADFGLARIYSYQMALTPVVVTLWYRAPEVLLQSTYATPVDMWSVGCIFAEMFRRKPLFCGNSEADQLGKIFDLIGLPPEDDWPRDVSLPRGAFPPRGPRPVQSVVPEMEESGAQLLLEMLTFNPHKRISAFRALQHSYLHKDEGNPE
T2 sequence (P24385 whole entry partner): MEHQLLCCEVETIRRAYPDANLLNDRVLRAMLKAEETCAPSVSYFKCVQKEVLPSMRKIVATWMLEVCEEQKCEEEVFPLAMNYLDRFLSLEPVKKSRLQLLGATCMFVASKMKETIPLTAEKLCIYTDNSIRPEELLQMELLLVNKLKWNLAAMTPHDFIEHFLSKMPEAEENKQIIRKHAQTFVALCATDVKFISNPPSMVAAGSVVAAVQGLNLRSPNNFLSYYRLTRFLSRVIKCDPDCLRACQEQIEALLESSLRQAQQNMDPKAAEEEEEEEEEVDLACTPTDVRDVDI
T2 sequence (Q16531 2-1140 limits assumed, further chain): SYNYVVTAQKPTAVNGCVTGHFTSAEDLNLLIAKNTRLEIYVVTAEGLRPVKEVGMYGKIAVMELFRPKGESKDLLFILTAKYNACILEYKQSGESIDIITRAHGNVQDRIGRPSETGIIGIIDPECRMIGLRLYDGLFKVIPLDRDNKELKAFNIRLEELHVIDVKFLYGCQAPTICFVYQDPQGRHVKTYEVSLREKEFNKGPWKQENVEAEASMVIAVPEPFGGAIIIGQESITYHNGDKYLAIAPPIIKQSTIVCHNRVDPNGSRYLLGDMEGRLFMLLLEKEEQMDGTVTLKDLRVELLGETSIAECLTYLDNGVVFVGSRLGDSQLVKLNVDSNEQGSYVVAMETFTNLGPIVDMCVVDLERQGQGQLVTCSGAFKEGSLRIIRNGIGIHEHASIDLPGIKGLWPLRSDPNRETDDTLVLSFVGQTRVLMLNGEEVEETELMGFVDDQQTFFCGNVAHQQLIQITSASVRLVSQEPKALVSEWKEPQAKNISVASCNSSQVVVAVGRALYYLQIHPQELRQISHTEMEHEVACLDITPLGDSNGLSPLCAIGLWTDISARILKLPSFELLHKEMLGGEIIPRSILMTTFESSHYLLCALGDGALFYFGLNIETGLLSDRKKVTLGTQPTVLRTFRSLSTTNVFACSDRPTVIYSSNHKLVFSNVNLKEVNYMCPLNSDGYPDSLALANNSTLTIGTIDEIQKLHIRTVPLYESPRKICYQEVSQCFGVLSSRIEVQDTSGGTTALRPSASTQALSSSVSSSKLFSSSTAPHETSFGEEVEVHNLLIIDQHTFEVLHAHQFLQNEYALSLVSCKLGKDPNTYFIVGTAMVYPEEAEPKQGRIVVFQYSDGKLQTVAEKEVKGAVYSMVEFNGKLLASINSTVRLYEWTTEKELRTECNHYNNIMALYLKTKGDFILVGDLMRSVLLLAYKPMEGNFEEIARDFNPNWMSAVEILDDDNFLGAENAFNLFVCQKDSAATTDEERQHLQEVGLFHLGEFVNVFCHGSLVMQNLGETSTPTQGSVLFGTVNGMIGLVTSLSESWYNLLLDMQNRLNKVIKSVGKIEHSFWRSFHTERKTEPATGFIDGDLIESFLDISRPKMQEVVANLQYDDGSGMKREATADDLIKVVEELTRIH

With `Cc1cnc(NC(=O)c2ccc(NCCOCCOCCOCCOCCOCCNC(=O)CN3CCN(c4ccc(Nc5ncc(F)c(-c6cc(F)c7nc(C)n(C(C)C)c7c6)n5)nc4)CC3)cc2C)s1` [CPD-021, 4-((1-(4-(6-((5-Fluoro-4-(4-fluoro-1-isopropyl-2-methyl-1H-benzo[d]imidazol-6-yl)pyrimidin-2-yl)amino)pyridin-3-yl)piperazin-1-yl)-2-oxo-6,9,12,15,18-pentaoxa-3-azaicosan-20-yl)amino)-2-methyl-N-(5-methylthiazol-2-yl)benzamide], the “CyclinD1 Degradation (10 μM)” value in assay [1] is reported as “A (protein percentage degradation >= 80%)”. In assay [2], this molecule came in with a Kd of 20 to 50 µM. In addition, in assay [3] (Calu-1 cells, 10 μM, 16 hours), the inhibition at 10 µM fell in the range of 50 to 80%.
For the molecule `Cc1cnc(NC(=O)c2ccc(NCCOCCOCCOCCOCCOCCNC(=O)CN3CCN(c4ccc(Nc5ncc6cc7n(c6n5)C5(CCCCC5)CNC7=O)nc4)CC3)cc2C)s1` [CPD-022, 2-Methyl-N-(5-methylthiazol-2-yl)-4-((2-oxo-1-(4-(6-((6′-oxo-7′,8′-dihydro-6′H-spiro[cyclohexane-1,9′-pyrazino[1′,2′:1,5]pyrrolo[2,3-d]pyrimidin]-2′-yl)amino)pyridin-3-yl)piperazin-1-yl)-6,9,12,15,18-pentaoxa-3-azaicosan-20-yl)amino)benzamide], in assay [1], the “CyclinD1 Degradation (10 μM)” value is reported as “A (protein percentage degradation >= 80%)”. Also, in assay [2], the Kd is less than 20 µM. Also, the inhibition at 10 µM in assay [3] (Calu-1, 16 h) is more than 80%.
As for `Cc1cnc(NC(=O)c2ccc(NCCOCCOCCOCCOCCOCCNC(=O)CN3CCN(c4ccc(Nc5ncc6cc(C(=O)N(C)C)n(C7CCCC7)c6n5)nc4)CC3)cc2C)s1` [CPD-023, 7-Cyclopentyl-N,N-dimethyl-2-((5-(4-(20-((3-methyl-4-((5-methylthiazol-2-yl)carbamoyl)phenyl)amino)-2-oxo-6,9,12,15,18-pentaoxa-3-azaicosyl)piperazin-1-yl)pyridin-2-yl)amino)-7H-pyrrolo[2,3-d]pyrimidine-6-carboxamide], the “CyclinD1 Degradation (10 μM)” value in assay [1] is listed as “A (protein percentage degradation >= 80%)”. The molecule also gave an equilibrium dissociation constant (Kd) in assay [2] of 50 to 100 µM. In assay [3] (Calu-1 cells, 10 μM, 16 hours), the inhibition at 10 µM is more than 80%.
Regarding `COC(=O)c1nc(NC(=O)c2ccc(NCCOCCOCCOCCOCCOCCNC(=O)CN3CCN(c4ccc(Nc5ncc6c(C)c(C(C)=O)c(=O)n(C7CCCC7)c6n5)nc4)CC3)cc2C)sc1C` [CPD-033, Methyl 2-(4-((1-(4-(6-((6-acetyl-8-cyclopentyl-5-methyl-7-oxo-7,8-dihydropyrido[2,3-d]pyrimidin-2-yl)amino)pyridin-3-yl)piperazin-1-yl)-2-oxo-6,9,12,15,18-pentaoxa-3-azaicosan-20-yl)amino)-2-methylbenzamido)-5-methylthiazole-4-carboxylate], the “CyclinD1 Degradation (200 nM)” value in assay [1] is on record as “A (protein percentage degradation >=80%)”. For the same molecule, in assay [2], the Kd was less than 20 µM. For the same molecule, the inhibition at 0.2 µM in assay [3] (Calu-1 cells, 16 hours) is more than 80%.
`CC(=O)c1c(C)c2cnc(Nc3ccc(N4CCN(CC(=O)NCCOCCOCCOCCOCCOCCNc5ccc(C(=O)Nc6nc(C(C)C)c(C)s6)c(C)c5)CC4)cn3)nc2n(C2CCCC2)c1=O` [CPD-043, 4-((1-(4-(6-((6-Acetyl-8-cyclopentyl-5-methyl-7-oxo-7,8-dihydropyrido[2,3-d]pyrimidin-2-yl)amino)pyridin-3-yl)piperazin-1-yl)-2-oxo-6,9,12,15,18-pentaoxa-3-azaicosan-20-yl)amino)-N-(4-isopropyl-5-methylthiazol-2-yl)-2-methylbenzamide]: the “CyclinD1 Degradation (200 nM)” value in assay [1] is listed as “A (protein percentage degradation >=80%)”. In addition, the Kd in assay [2] is less than 20 µM. In addition, the inhibition at 0.2 µM in assay [3] (Calu-1 cells, 16 hours) is more than 80%.
Consider `CC(=O)c1c(C)c2cnc(Nc3ccc(N4CCN(CC(=O)NCCOCCOCCOCCOCCOCCNc5ccc(C(=O)Nc6nc(Br)c(C)s6)c(C)c5)CC4)cn3)nc2n(C2CCCC2)c1=O` [CPD-044, 4-((1-(4-(6-((6-Acetyl-8-cyclopentyl-5-methyl-7-oxo-7,8-dihydropyrido[2,3-d]pyrimidin-2-yl)amino)pyridin-3-yl)piperazin-1-yl)-2-oxo-6,9,12,15,18-pentaoxa-3-azaicosan-20-yl)amino)-N-(4-bromo-5-methylthiazol-2-yl)-2-methylbenzamide], for which the “CyclinD1 Degradation (200 nM)” value in assay [1] is given as “A (protein percentage degradation >=80%)”. For the same molecule, the Kd in assay [2] was less than 20 µM. The inhibition at 0.2 µM in assay [3] (Calu-1 cells, 16 hours) was 50 to 80%.
As to `CC(=O)c1c(C)c2cnc(Nc3ccc(N4CCN(CC(=O)NCCOCCOCCOCCOCCOCCNc5ccc(C(=O)Nc6nc(C7CC7)c(C)s6)c(C)c5)CC4)cn3)nc2n(C2CCCC2)c1=O` [CPD-046, 4-((1-(4-(6-((6-Acetyl-8-cyclopentyl-5-methyl-7-oxo-7,8-dihydropyrido[2,3-d]pyrimidin-2-yl)amino)pyridin-3-yl)piperazin-1-yl)-2-oxo-6,9,12,15,18-pentaoxa-3-azaicosan-20-yl)amino)-N-(4-cyclopropyl-5-methylthiazol-2-yl)-2-methylbenzamide], the “CyclinD1 Degradation (200 nM)” value in assay [1] is “A (protein percentage degradation >=80%)”. In addition, the Kd in assay [2] is less than 20 µM. Also, in assay [3] (Calu-1 cells, 16 hours), the inhibition at 0.2 µM was more than 80%.
As for `CCc1nc(NC(=O)c2ccc(NCCOCCOCCOCCOCCOCCNC(=O)CN3CCN(c4ccc(Nc5ncc6c(C)c(C(C)=O)c(=O)n(C7CCCC7)c6n5)nc4)CC3)cc2C)sc1C` [CPD-047, 4-((1-(4-(6-((6-Acetyl-8-cyclopentyl-5-methyl-7-oxo-7,8-dihydropyrido[2,3-d]pyrimidin-2-yl)amino)pyridin-3-yl)piperazin-1-yl)-2-oxo-6,9,12,15,18-pentaoxa-3-azaicosan-20-yl)amino)-N-(4-ethyl-5-methylthiazol-2-yl)-2-methylbenzamide], the “CyclinD1 Degradation (200 nM)” value in assay [1] is given as “A (protein percentage degradation >=80%)”. In assay [2], the Kd is less than 20 µM. Further, the inhibition at 0.2 µM in assay [3] (Calu-1 cells, 16 hours) was more than 80%.
Regarding `CC(=O)c1c(C)c2cnc(Nc3ccc(N4CCN(CC(=O)NCCOCCOCCOCCC(=O)Nc5ccccc5C(=O)Nc5nc(C)c(C)s5)CC4)cn3)nc2n(C2CCCC2)c1=O` [CPD-114, 2-(1-(4-(6-((6-Acetyl-8-cyclopentyl-5-methyl-7-oxo-7,8-dihydropyrido[2,3-d]pyrimidin-2-yl)amino)pyridin-3-yl)piperazin-1-yl)-2-oxo-6,9,12-trioxa-3-azapentadecan-15-amido)-N-(4,5-dimethylthiazol-2-yl)benzamide], the “CyclinD1 Degradation (200 nM)” value in assay [1] is “A (protein percentage degradation >=80%)”. Also, in assay [2], the Kd is less than 20 µM. In addition, in assay [3] (Calu-1 cells, 16 hours), the inhibition at 0.2 µM was more than 80%.
For the molecule `CC(=O)c1c(C)c2cnc(Nc3ccc(N4CCN(CC(=O)NCCOCCOCCC(=O)Nc5ccccc5C(=O)Nc5nc(C)c(C)s5)CC4)cn3)nc2n(C2CCCC2)c1=O` [CPD-115, 2-(3-(2-(2-(2-(4-(6-((6-Acetyl-8-cyclopentyl-5-methyl-7-oxo-7,8-dihydropyrido[2,3-d]pyrimidin-2-yl)amino)pyridin-3-yl)piperazin-1-yl)acetamido)ethoxy)ethoxy)propanamido)-N-(4,5-dimethylthiazol-2-yl)benzamide], the “CyclinD1 Degradation (200 nM)” value in assay [1] is reported as “A (protein percentage degradation >=80%)”. In addition, the Kd in assay [2] was less than 20 µM. Also, the inhibition at 0.2 µM in assay [3] (Calu-1 cells, 16 hours) is more than 80%.
